Reference: patent US9234025B2, “Extracellular allosteric inhibitor binding domain from a tyrosine kinase receptor” (SANOFI, priority 2009, dated 2016)

How the values were obtained:
FGFR1 = molecular target: T1, FGFR1 (Homo sapiens, UniProt P11362); assay: AlexaFluor488-FGF2 binding on FGFR1-transfected 300-19 cells (flow cytometry); settings: SSR 300 nM; FGF2 10 ng/ml; murine pre-B 300-19 cells
T1 construct: V5/His (encoded by the vector); expressed in transfected cells; host or cells: murine pre-B 300-19 cells
Experimental: FGF2 was labeled with Alexa Fluor 488 C5-maleimide (Invitrogen, A10254) following purchaser recommendations.
This AF488-FGF2 was used at 10 ng/ml in binding experiments on murine pre-B 300-19 cells transfected with FGFR1 or FGFR4 constructs in pEF6-V5/His Topo plasmids (Invitrogen). SSR (300 nM final) was pre-incubating 20 min with cells in RPMI 1640 (Invitrogen, 32404-014) with 10% FCS (Hyclone, SH30070.03), 2 mM glutamine, MEM non-essential amino-acid 1× (Gibco, 11140-035), MEM sodium pyruvate 1× (Gibco, 11360-039) and […] monothioglycerol (Sigma, M6145) at 4° C. under 150 rpm agitation. Then, FGF2 (10 ng/ml final) is added for 30 min and binding is measured using a FACS Calibur flow cytometer (Beckton Dickinson). Fluorescence median for each condition is also analysed.

FGFR4 = molecular target: T2, FGFR4 (Homo sapiens, UniProt P22455); assay: FGF2 binding to FGFR4 in intact cells; settings: receptor expressed in intact cells
T2 construct: expressed in transfected cells; host or cells: murine pre-B 300-19 cells

[1] = molecular target: T3, hFGFR1IIIcα-Hemagluttinin (Homo sapiens, UniProt P11362); assay: FGFR1 phosphorylation in rat fat-pad endothelial cells; assay type: cell-based
T3 construct: expressed in transfected cells; host or cells: rat fat-pad endothelial cells (RFPEC)
Experimental: Rat fat-pad endothelial cells, stably transfected with hFGFR1IIIcα-Hemagluttinin, were grown to 80-90% confluency and serum starved (0.5% FBS) for 24 h. Stimulation was performed during 5 minutes with FGF2 at 2 ng/ml in combination with SSR or DMSO (as control). Cell lysates were centrifuged at 12,000 g for 10 min, and the supernatants were collected. HA-tagged proteins were immunoprecipitated by incubation of cell lysates overnight at 4° C. in the presence of agarose conjugated anti-HA antibodies. Immune complexes were washed three times with 1 ml of lysis buffer; proteins were eluted via incubation with 50 μl of 2×SDS sample buffer and boiling. Proteins were separated on Novex polyacrylamide gels (Invitrogen, Carlsbad, Calif.) and subsequently transferred onto Hybond ECL nitrocellulose membranes (Amersham Pharmacia). Following incubation with 5% non-fat milk powder in PBS, the membranes were incubated overnight at 4° C. with the following antibodies: pFGFR (CST: 3471) and FGFR1 (CST: 3472).

B9-FGFR3TD cell line = assay: B9 myeloma cell proliferation, FGFR3TD (K650E); assay type: cell-based; settings: constitutively activated FGFR3 K650E
Experimental: Cell proliferation was analysed on exponentially growing cells that were starved for 16 hours in IMDM (Invitrogen, 31980048), 0.2% FBS, 2 mM glutamine containing medium and seeded at 4,000 cells/well in 96-well microplates. After exposure to mitogens and/or SSR for 72 hours, cell proliferation was assessed with the use of the CellTiter 96 AQueous One Solution Cell Proliferation Assay (Promega, Madison, Wis., USA) according to manufacturer's instructions.
For studying SSR effect on FGFR3, the proliferation of B9-myeloma cells, expressing either FGFR3WT or FGFR3TD (a constitutively activated FGFR3 variant induced by the K650E mutation, even in the absence of any ligand; Truedel et al; blood 2006), was assayed by stimulation with FGF1 (25 ng/ml).

FGFR2 = molecular target: T4, FGFR2 (Homo sapiens, UniProt P21802); assay: FGF ligand binding to FGFR2 in intact cells; settings: receptor expressed in intact cells
T4 construct: or the expression of the entire intact receptor in its native environment

HUVEC = HUVEC in vitro angiogenesis; assay type: cell-based, human; settings: low nanomolar range
Experimental: Collagen/matrigel gels are prepared by distributing in each well of a chamberslide (Biocoat Cellware collagen, Type I, 8-well culturesides: Becton dickinson 354630), 160 μl of 1/6 diluted matrigel (Growth factor reduced Matrigel: Becton dickinson 356230) in collagen I (rat Tail collagene, type I: Becton dickinson 354236). Polymerisation occurs at 37° C. for 1 h. Then, 15.10^3 HUVEC are added per well in 400 μl EBM medium (Clonetics C3121)+2% FCS+hEGF 10 μg/ml. Endothelial cells are stimulated with 10 ng/ml of FGF2 (R&D, 133-FB-025), FGF4 (R&D, 235-F4-025) or FGF19 (R&D, 969-FG-025) for 24 h at 37° C. in a CO2 chamber. Then, total length of pseudotubules is quantified using a bioimaging system (Imagenia Biocom, Courtaboeuf, France).

[2] = molecular target: T5, TNF-R1 extracellular protein (Homo sapiens, UniProt P19438); assay: STD-NMR binding assay, TNF-R1 control; settings: STD-NMR specificity control
T5 construct: made in house

[3] = system: human umbilical vein endothelial cells (HUVECs); assay: I125-FGF2 binding assay on HUVECs; settings: intact cells, SSR even at high μM concentrations
[4] = system: cognate receptor of >100 distinct ligands; assay: SPA selectivity, >100 distinct ligands to their cognate receptor; assay type: binding; settings: ligands with related structural homology or entirely different chemical composition
FGFR1 (PAE-FGFR1) = molecular target: T6, FGFR1 (PAE-FGFR1) (Homo sapiens, UniProt P11362); assay: I125-FGF2 binding assay on PAE-FGFR1 cells; settings: porcine aortic endothelial cells overexpressing FGFR1; SSR even at high μM concentrations
T6 construct: or the expression of the entire intact receptor in its native environment; expressed in transfected cells; host or cells: porcine aortic endothelial cells (PAE)

FGF2 = FGF2 (Homo sapiens, UniProt P09038); assay: FGF2 dimerization; assay type: biochemical
Chain of FGF2 (P09038 134-288, species assumed): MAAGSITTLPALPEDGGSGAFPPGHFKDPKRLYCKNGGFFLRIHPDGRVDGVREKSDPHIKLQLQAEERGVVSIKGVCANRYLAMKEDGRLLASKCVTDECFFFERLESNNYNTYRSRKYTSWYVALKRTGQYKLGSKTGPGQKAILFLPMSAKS

T3 sequence (P11362 22-822): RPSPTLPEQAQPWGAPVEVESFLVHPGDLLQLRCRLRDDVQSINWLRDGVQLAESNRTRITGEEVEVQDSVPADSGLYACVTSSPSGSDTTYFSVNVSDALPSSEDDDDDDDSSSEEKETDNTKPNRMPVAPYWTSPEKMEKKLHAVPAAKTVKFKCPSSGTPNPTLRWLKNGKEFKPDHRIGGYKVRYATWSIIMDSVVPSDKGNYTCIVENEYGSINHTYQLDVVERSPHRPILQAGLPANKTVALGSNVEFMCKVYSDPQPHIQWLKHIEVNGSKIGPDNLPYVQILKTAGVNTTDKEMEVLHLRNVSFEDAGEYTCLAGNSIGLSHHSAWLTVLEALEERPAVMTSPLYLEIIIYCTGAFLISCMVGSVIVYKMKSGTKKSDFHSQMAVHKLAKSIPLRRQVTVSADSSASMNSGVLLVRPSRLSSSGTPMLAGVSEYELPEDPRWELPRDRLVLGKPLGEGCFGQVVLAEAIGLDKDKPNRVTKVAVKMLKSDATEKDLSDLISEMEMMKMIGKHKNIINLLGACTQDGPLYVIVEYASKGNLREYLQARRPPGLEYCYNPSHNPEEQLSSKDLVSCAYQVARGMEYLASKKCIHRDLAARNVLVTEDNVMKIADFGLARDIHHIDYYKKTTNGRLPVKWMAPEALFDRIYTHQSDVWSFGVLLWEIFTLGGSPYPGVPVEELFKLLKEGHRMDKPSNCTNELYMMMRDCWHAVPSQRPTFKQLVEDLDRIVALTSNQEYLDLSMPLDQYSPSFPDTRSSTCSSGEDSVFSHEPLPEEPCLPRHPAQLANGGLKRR
T6 sequence (P11362 22-822): as above
T1 sequence (P11362 22-822): as above
T2 sequence (P22455 22-802): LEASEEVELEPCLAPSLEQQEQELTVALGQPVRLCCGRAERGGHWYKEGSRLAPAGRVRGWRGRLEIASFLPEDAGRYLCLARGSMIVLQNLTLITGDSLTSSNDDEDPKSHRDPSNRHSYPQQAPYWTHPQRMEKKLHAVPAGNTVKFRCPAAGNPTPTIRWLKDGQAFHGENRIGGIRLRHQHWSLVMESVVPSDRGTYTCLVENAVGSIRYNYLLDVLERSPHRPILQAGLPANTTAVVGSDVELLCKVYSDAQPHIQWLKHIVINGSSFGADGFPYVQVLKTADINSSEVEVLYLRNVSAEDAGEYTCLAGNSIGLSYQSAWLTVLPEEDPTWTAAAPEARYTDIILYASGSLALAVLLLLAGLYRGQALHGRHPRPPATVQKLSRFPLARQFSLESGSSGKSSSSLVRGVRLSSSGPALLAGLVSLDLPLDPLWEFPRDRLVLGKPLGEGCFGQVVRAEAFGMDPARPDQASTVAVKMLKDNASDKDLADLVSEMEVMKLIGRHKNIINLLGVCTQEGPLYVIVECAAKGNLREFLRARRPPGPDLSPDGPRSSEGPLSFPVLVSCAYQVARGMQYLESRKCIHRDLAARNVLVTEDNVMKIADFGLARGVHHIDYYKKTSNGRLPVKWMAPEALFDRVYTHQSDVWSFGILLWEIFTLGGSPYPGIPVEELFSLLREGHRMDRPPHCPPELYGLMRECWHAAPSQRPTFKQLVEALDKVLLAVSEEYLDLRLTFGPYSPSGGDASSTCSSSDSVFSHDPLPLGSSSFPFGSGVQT
T5 sequence (P19438 30-211 limits assumed): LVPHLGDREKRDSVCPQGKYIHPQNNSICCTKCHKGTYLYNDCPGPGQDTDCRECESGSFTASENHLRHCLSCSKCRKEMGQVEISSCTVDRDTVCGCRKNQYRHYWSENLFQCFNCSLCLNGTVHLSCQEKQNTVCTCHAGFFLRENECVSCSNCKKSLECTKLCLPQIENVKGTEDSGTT
T4 sequence (P21802 22-821): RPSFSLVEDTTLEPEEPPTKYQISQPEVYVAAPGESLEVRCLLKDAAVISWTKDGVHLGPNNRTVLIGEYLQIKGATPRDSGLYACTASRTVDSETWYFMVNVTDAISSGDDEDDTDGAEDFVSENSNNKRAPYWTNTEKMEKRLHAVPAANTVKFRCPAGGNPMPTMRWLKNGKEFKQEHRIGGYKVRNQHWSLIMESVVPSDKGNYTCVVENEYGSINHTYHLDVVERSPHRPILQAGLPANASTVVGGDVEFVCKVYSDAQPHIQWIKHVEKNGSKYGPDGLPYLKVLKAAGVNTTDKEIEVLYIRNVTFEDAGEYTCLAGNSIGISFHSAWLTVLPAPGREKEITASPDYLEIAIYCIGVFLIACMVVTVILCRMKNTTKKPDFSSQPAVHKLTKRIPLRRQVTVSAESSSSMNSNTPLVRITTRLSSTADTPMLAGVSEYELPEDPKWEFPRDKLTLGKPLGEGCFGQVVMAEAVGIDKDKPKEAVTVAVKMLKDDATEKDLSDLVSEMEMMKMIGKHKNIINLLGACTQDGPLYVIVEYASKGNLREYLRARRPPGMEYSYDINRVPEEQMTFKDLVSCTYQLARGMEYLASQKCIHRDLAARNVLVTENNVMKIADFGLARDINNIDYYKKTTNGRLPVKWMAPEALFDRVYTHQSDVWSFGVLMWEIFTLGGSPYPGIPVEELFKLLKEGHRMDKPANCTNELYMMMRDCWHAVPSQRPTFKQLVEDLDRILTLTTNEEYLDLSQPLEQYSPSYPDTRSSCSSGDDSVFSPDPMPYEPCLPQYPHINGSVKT

## COc1c(C)c(C(=O)c2ccc(N)c(C(=O)[O-])c2)n2ccccc12.[Na+] [SSR]
FGFR1
  competition with AlexaFluor488-labelled FGF2 binding to FGFR1: not able to compete this binding
FGFR4
  binding of FGF2 to FGFR4: failed to antagonize
[1]; SSR in the nanomolar concentration range
  FGF2-induced FGFR1 tyrosine phosphorylation: highly reduced
[1]; even at high doses
  residual FGFR1 tyrosine phosphorylation: does not completely eliminate FGFR1 tyrosine phosphorylation
B9-FGFR3TD cell line
  proliferation of B9-FGFR3TD cells: insensitve
FGFR2
  binding of FGF2 or FGF4 to FGFR2: failed to antagonize
HUVEC
  FGF2-induced HUVEC in vitro angiogenesis: blocks FGF2-induced HUVEC angiogenesis
[2]
  binding to TNF-R1 extracellular protein: no binding is observed
[3]
  inhibition of I^125-FGF2 binding to its receptor: unable to inhibit I^125-FGF2 binding
[4]
  binding of >100 distinct ligands to their cognate receptor: not inhibiting
FGFR1 (PAE-FGFR1)
  inhibition of I^125-FGF2 binding to its receptor: unable to inhibit I^125-FGF2 binding
FGF2
  FGF2 dimerization: not able to inhibit
